Experimental data from patent US20260317324A1, “BIFUNCTIONAL COMPOUNDS FOR DEGRADING BRAF VIA UBIQUITIN PROTEOSOME PATHWAY” (Nurix Therapeutics, Inc., priority 2023, published 2026).

How the values were obtained:
Type in all cases: cell-based
BRAF V600E = biological target: T1, BRAF V600E (Homo sapiens, UniProt P15056, V600E); assay: BRAF HiBiT degradation assay, C-terminal HiBiT-tagged BRAF V600E A375 cells (clone 1F10), Nano-Glo HiBiT Lytic assay; settings: for Dmax: A-375
T1 construct: endogenous C-terminal HiBiT fusion tag on BRAF V600E allele; endogenous in cells; host or cells: A375 clone 1F10 (CRISPR-Cas9 knock-in of the HiBiT tag; parental A375 from ATCC)
T1 sequence (P15056 whole entry V600E, the tested form may be a part): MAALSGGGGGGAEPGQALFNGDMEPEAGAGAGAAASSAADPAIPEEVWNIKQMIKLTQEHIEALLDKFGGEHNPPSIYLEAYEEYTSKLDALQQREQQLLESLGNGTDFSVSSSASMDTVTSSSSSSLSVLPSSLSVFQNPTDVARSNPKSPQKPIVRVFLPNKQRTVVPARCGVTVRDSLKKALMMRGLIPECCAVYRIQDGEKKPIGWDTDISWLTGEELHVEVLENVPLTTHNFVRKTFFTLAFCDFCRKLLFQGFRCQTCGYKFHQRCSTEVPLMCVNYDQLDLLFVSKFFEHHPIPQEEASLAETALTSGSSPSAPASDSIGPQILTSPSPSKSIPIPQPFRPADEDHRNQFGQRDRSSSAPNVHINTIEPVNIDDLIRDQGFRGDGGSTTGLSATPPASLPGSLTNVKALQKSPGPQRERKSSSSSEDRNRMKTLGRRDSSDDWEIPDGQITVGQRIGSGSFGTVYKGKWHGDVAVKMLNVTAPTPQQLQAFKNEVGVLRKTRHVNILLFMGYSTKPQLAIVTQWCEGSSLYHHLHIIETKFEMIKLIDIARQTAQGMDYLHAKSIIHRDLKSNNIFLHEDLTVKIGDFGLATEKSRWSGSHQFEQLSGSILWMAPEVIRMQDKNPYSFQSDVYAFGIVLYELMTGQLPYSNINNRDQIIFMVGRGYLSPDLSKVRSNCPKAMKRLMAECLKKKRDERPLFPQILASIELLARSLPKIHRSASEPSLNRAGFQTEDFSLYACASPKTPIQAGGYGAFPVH
How it was run: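 Luminescence read-out: Nano-Glo HiBiT lytic reagent with LgBiT, 10 min at room temperature. Signal normalised to DMSO-treated tagged cells, with wildtype A375 as background. Cells are endogenously tagged BRAF V600E A375 clone 1F10. Compounds were tested from 1 μM to 0.01 nM; Dmax is observed % degraded at maximal effect.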

BRAF D594G = biological target: T2, BRAF D594G (Homo sapiens, UniProt P15056, D594G); assay: BRAF HiBiT degradation assay, C-terminal HiBiT-tagged BRAF D594G overexpressed in HCT-116 BRAF−/− cells (clone 63), Nano-Glo HiBiT Lytic assay
T2 construct: Horizon Discovery (HCT-116 BRAF−/− cells); host or cells: HCT-116 BRAF−/− cells, clone 63, lentiviral transduction
T2 sequence (P15056 whole entry D594G): as the sequence (P15056 whole entry V600E, the tested form may be a part) above, with D594G, E600V counted along it
How it was run: (§1)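 Cells 3,000/well, 24 h at 37 °C; cpds 1 μM–0.01 nM, 11-pt half-log, duplicate, 0.2% DMSO. Readout: HiBiT lytic luminescence, 10 min at RT. Normalized to DMSO-treated tagged cells, with DMSO-treated wild-type HCT-116 as background. DC50 = fitted concentration at Y=50; Obs. Dmax = % degraded at maximal effect.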

BRAF G469A = biological target: T3, BRAF G469A (Homo sapiens, UniProt P15056, G469A); assay: BRAF HiBiT degradation assay, C-terminal HiBiT-tagged BRAF G469A overexpressed in HCT-116 BRAF−/− cells (clone 34), Nano-Glo HiBiT Lytic assay
T3 construct: Horizon Discovery (HCT-116 BRAF−/− cells); host or cells: HCT-116 BRAF−/− cells, clone 34, lentiviral transduction
T3 sequence (P15056 whole entry G469A): as the sequence (P15056 whole entry V600E, the tested form may be a part) above, with G469A, E600V counted along it
How it was run: as §1

BRAF G466V = biological target: T4, BRAF G466V (Homo sapiens, UniProt P15056, G466V); assay: BRAF HiBiT degradation assay, C-terminal HiBiT-tagged BRAF G466V overexpressed in HCT-116 BRAF−/− cells (clone 8), Nano-Glo HiBiT Lytic assay
T4 construct: Horizon Discovery (HCT-116 BRAF−/− cells); host or cells: HCT-116 BRAF−/− cells, clone 8, lentiviral transduction
T4 sequence (P15056 whole entry G466V): as the sequence (P15056 whole entry V600E, the tested form may be a part) above, with G466V, E600V counted along it
How it was run: as §1

[1] = A375 (BRAF V600E), DC50 at 50%: fitted conc. at Y=50
[2] = A375 (BRAF V600E), percentage protein degraded at maximal compound effect relative to DMSO
[3] = BRAF D594G, DC50 at 50%: fitted conc. at Y=50
[4] = HCT-116, BRAF D594G, percentage protein degraded at maximal compound effect relative to DMSO
[5] = Class 2, BRAF G469A, DC50 at 50%: fitted conc. at Y=50
[6] = HCT-116, Class 2, BRAF G469A, percentage protein degraded at maximal compound effect relative to DMSO
[7] = BRAF G466V, DC50 at 50%: fitted conc. at Y=50
[8] = HCT-116, BRAF G466V, percentage protein degraded at maximal compound effect relative to DMSO
[9] = A375 (BRAF V600E, Class 1), DC50 at 50% degradation
[10] = A375 (BRAF V600E, Class 1), observed Dmax, % protein degraded relative to DMSO control
[11] = BRAF D594G (Class 3), HCT-116 BRAF−/− cells, DC50 at 50% degradation
[12] = BRAF D594G (Class 3), HCT-116 BRAF−/− cells, observed Dmax relative to DMSO control
[13] = BRAF G469A (Class 2), HCT-116 BRAF−/− cells, DC50 at 50% degradation
[14] = BRAF G469A (Class 2), HCT-116 BRAF−/− cells, observed Dmax relative to DMSO control
[15] = BRAF G466V (Class 3), HCT-116 BRAF−/− cells, DC50 at 50% degradation
[16] = BRAF G466V (Class 3), HCT-116 BRAF−/− cells, observed Dmax relative to DMSO control

Row | SMILES | DC50 (BRAF V600E; [1]) | Dmax (BRAF V600E; [2]) | DC50 (BRAF D594G; [3]) | Dmax (BRAF D594G; [4]) | DC50 (BRAF G469A; [5]) | Dmax (BRAF G469A; [6]) | DC50 (BRAF G466V; [7]) | Dmax (BRAF G466V; [8]) | DC50 (BRAF V600E; [9]) | Dmax (BRAF V600E; [10]) | DC50 (BRAF D594G; [11]) | Dmax (BRAF D594G; [12]) | DC50 (BRAF G469A; [13]) | Dmax (BRAF G469A; [14]) | DC50 (BRAF G466V; [15]) | Dmax (BRAF G466V; [16])
1 | CCCS(=O)(=O)Nc1cccc(-c2nc(C3CCC4(CC3)CCN(C[C@H]3CC[C@H](Oc5ccc(C6CCC(=O)NC6=O)cn5)CC3)CC4)sc2-c2ccnc(N)n2)c1F (mixture of isomers) [Compound 257, N-{3-[5-(2-aminopyrimidin-4-yl)-2-(3-{[(1r,4r)-4-({5-[(3RS)-2,6-dioxopiperidin-3-yl]pyridin-2-yl}oxy)cyclohexyl]methyl}-3-azaspiro[5.5]undecan-9-yl)-1,3-thiazol-4-yl]-2-fluorophenyl}propane-1-sulfonamide] | – | – | – | – | – | – | – | – | 0.01 to 0.05 µM | > 70% | > 0.5 µM | < 30% | > 0.5 µM | < 30% | > 0.5 µM | < 30%
2 | CCCS(=O)(=O)Nc1cccc(-c2nc(C(C)(C)C)sc2-c2ccnc(Nc3cnn(CC4CCN(C(=O)CN5CCc6cc(C7CCC(=O)NC7=O)ccc6C5)CC4)c3)n2)c1F (racemic) [Compound 119, Rac-N-[3-(2-tert-butyl-5-{2-[(1-{[1-(2-{6-[(3R)-2,6-dioxopiperidin-3-yl]-1,2,3,4-tetrahydroisoquinolin-2-yl}acetyl)piperidin-4-yl]methyl}-1H-pyrazol-4-yl)amino]pyrimidin-4-yl}-1,3-thiazol-4-yl)-2-fluorophenyl]propane-1-sulfonamide] | < 0.01 µM | > 70% | > 0.5 µM | 30 to 70% | > 0.5 µM | < 30% | > 0.5 µM | < 30% | – | – | – | – | – | – | – | –
3 | CCCS(=O)(=O)Nc1cccc(-c2nc(C3CCN(C(=O)C4CCN(C(=O)C5(C)CCN(c6ccc(C7CCC(=O)NC7=O)cn6)CC5)CC4)CC3)sc2-c2ccnc(N)n2)c1F (racemic) [Compound 193, Rac-N-{3-[5-(2-aminopyrimidin-4-yl)-2-{1-[1-(1-{5-[(3R)-2,6-dioxopiperidin-3-yl]pyridin-2-yl}-4-methylpiperidine-4-carbonyl)piperidine-4-carbonyl]piperidin-4-yl}-1,3-thiazol-4-yl]-2-fluorophenyl}propane-1-sulfonamide] | < 0.01 µM | > 70% | < 0.01 µM | 30 to 70% | > 0.5 µM | 30 to 70% | 0.01 to 0.05 µM | 30 to 70% | – | – | – | – | – | – | – | –
4 | CCCS(=O)(=O)Nc1cccc(-c2nc(C(C)(C)C)sc2-c2ccnc(NC3CC4(C3)CN(C(=O)C3(F)CCN(CC5CCN(c6ccc(C7CCC(=O)NC7=O)cc6)CC5)CC3)C4)n2)c1F (racemic) [Compound 141, Rac-N-[3-(2-tert-butyl-5-{2-[(2-{1-[(1-{4-[(3R)-2,6-dioxopiperidin-3-yl]phenyl}piperidin-4-yl)methyl]-4-fluoropiperidine-4-carbonyl}-2-azaspiro[3.3]heptan-6-yl)amino]pyrimidin-4-yl}-1,3-thiazol-4-yl)-2-fluorophenyl]propane-1-sulfonamide] | 0.01 to 0.05 µM | > 70% | > 0.5 µM | < 30% | > 0.5 µM | < 30% | > 0.5 µM | < 30% | – | – | – | – | – | – | – | –
5 | CCCS(=O)(=O)Nc1cccc(-c2nc(C3CCC4(CC3)CCN(C(=O)C3CCN(c5ccc6c(c5)C(=O)N(C5CCC(=O)NC5=O)C6=O)CC3)CC4)sc2-c2ccnc(N)n2)c1F (racemic) [Compound 245, Rac-N-{3-[5-(2-aminopyrimidin-4-yl)-2-[3-(1-{2-[(3R)-2,6-dioxopiperidin-3-yl]-1,3-dioxo-2,3-dihydro-1H-isoindol-5-yl}piperidine-4-carbonyl)-3-azaspiro[5.5]undecan-9-yl]-1,3-thiazol-4-yl]-2-fluorophenyl}propane-1-sulfonamide] | < 0.01 µM | > 70% | < 0.01 µM | 30 to 70% | > 0.5 µM | 30 to 70% | > 0.5 µM | 30 to 70% | – | – | – | – | – | – | – | –

More lines, now with the values ahead:

Row | DC50 (BRAF V600E; [1]) | Dmax (BRAF V600E; [2]) | DC50 (BRAF D594G; [3]) | Dmax (BRAF D594G; [4]) | DC50 (BRAF G469A; [5]) | Dmax (BRAF G469A; [6]) | DC50 (BRAF G466V; [7]) | Dmax (BRAF G466V; [8]) | DC50 (BRAF V600E; [9]) | Dmax (BRAF V600E; [10]) | DC50 (BRAF D594G; [11]) | Dmax (BRAF D594G; [12]) | DC50 (BRAF G469A; [13]) | Dmax (BRAF G469A; [14]) | DC50 (BRAF G466V; [15]) | Dmax (BRAF G466V; [16]) | SMILES
6 | 0.01 to 0.05 µM | > 70% | > 0.5 µM | 30 to 70% | > 0.5 µM | < 30% | > 0.5 µM | 30 to 70% | – | – | – | – | – | – | – | – | CCCS(=O)(=O)Nc1cccc(-c2cn(C3CCN(C(=O)C4CCN(CC5CCN(c6ccc(C7CCC(=O)NC7=O)cn6)CC5)CC4)CC3)nc2-c2ccncc2)c1F (racemic) [Compound 6, Rac-N-{3-[1-(1-{1-[(1-{5-[(3R)-2,6-dioxopiperidin-3-yl]pyridin-2-yl}piperidin-4-yl)methyl]piperidine-4-carbonyl}piperidin-4-yl)-3-(pyridin-4-yl)-1H-pyrazol-4-yl]-2-fluorophenyl}propane-1-sulfonamide]
7 | – | – | – | – | – | – | – | – | < 0.01 µM | > 70% | < 0.01 µM | > 70% | < 0.01 µM | 30 to 70% | < 0.01 µM | > 70% | O=C1CC[C@H](c2ccc(N3CCC(CN4CCN(c5cnc(-n6cc(-c7cc(Cl)cc(NS(=O)(=O)N8CCCC8)c7F)c(-c7ccncc7)n6)nc5)CC4)CC3)cc2)C(=O)N1 [Compound 360, N-{5-chloro-3-[1-(5-{4-[(1-{4-[(3R)-2,6-dioxopiperidin-3-yl]phenyl}piperidin-4-yl)methyl]piperazin-1-yl}pyrimidin-2-yl)-3-(pyridin-4-yl)-1H-pyrazol-4-yl]-2-fluorophenyl}pyrrolidine-1-sulfonamide]
8 | – | – | – | – | – | – | – | – | < 0.01 µM | > 70% | < 0.01 µM | > 70% | 0.01 to 0.05 µM | > 70% | < 0.01 µM | > 70% | O=C1CC[C@H](c2ccc(N3CCC(CN4CCN(c5ccc(-n6cc(-c7cc(Cl)cc(NS(=O)(=O)N8CC[C@@H](F)C8)c7F)c(-c7ccncc7)n6)c(F)c5)CC4)CC3)nc2)C(=O)N1 [Compound 334, (3R)—N-{5-chloro-3-[1-(4-{4-[(1-{5-[(3R)-2,6-dioxopiperidin-3-yl]pyridin-2-yl}piperidin-4-yl)methyl]piperazin-1-yl}-2-fluorophenyl)-3-(pyridin-4-yl)-1H-pyrazol-4-yl]-2-fluorophenyl}-3-fluoropyrrolidine-1-sulfonamide]
9 | – | – | – | – | – | – | – | – | < 0.01 µM | > 70% | < 0.01 µM | 30 to 70% | > 0.5 µM | 30 to 70% | 0.01 to 0.05 µM | 30 to 70% | O=C1CCN(c2ccc(N3CCC(CN4CCN(c5cnc(-n6cc(-c7cc(Cl)cc(NS(=O)(=O)N8CCCC8)c7F)c(-c7ccncc7)n6)nc5)CC4)CC3)cc2)C(=O)N1 [Compound 358, N-[5-chloro-3-(1-{5-[4-({1-[4-(2,4-dioxo-1,3-diazinan-1-yl)phenyl]piperidin-4-yl}methyl)piperazin-1-yl]pyrimidin-2-yl}-3-(pyridin-4-yl)-1H-pyrazol-4-yl)-2-fluorophenyl]pyrrolidine-1-sulfonamide]
10 | 0.01 to 0.05 µM | > 70% | 0.01 to 0.05 µM | 30 to 70% | 0.05 to 0.5 µM | 30 to 70% | 0.01 to 0.05 µM | 30 to 70% | – | – | – | – | – | – | – | – | CCCS(=O)(=O)Nc1cccc(-c2nc(C(C)(C)C)sc2-c2ccnc(N[C@H]3CC[C@@H](N4CCN(CC5CCN(c6ccc(C7CCC(=O)NC7=O)cn6)CC5)CC4)CC3)n2)c1F (mixture of isomers) [Compound 134, N-{3-[2-tert-butyl-5-(2-{[(1s,4s)-4-{4-[(1-{5-[(3RS)-2,6-dioxopiperidin-3-yl]pyridin-2-yl}piperidin-4-yl)methyl]piperazin-1-yl}cyclohexyl]amino}pyrimidin-4-yl)-1,3-thiazol-4-yl]-2-fluorophenyl}propane-1-sulfonamide]
